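Cells were grown in 96-well plates and exposed to each compound for 48 hours at five concentrations; endpoints were interpolated linearly between bracketing concentrations, or set to the highest concentration if not reached. GI50 is the concentration that inhibits growth by half. TGI: concentration producing complete growth inhibition.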
Columns and labels:
Assay in all cases: NCI-60 cell line screen, 48 h
[1] = test system: HL-60(TB) leukemia
[2] = test system: SK-MEL-2 melanoma
[3] = test system: HCC-2998 colon
[4] = test system: COLO 205 colon
[5] = test system: M14 melanoma
[6] = test system: OVCAR-8 ovarian
[7] = test system: PC-3 prostate
[8] = test system: OVCAR-5 ovarian
[9] = test system: SK-OV-3 ovarian
[10] = test system: CAKI-1 renal
[11] = test system: U251 CNS
[12] = test system: NCI-H23 lung
[13] = test system: NCI-H522 lung
[14] = test system: MALME-3M melanoma
[15] = test system: T-47D breast
[16] = test system: NCI-H460 lung
[17] = test system: SK-MEL-5 melanoma
[18] = test system: HS 578T breast
[19] = test system: HOP-92 NSCLC
[20] = test system: K-562 leukemia
[21] = test system: MDA-MB-231 breast
[22] = test system: SF-295 CNS
[23] = test system: HCT-116 colon
[24] = test system: SN12C renal
[25] = test system: MOLT-4 leukemia
[26] = test system: A549 NSCLC
[27] = test system: OVCAR-3 ovarian
[28] = test system: KM12 colon
[29] = test system: HCT-15 colon
[30] = test system: RXF 393 renal
[31] = test system: NCI-H226 lung
[32] = test system: CCRF-CEM leukemia
[33] = test system: UACC-62 melanoma
[34] = test system: A498 renal
[35] = test system: DU-145 prostate
[36] = test system: UACC-257 melanoma
[37] = test system: NCI/ADR-RES ovarian
[38] = test system: SK-MEL-28 melanoma
[39] = test system: SF-539 CNS
[40] = test system: HOP-62 NSCLC
[41] = test system: 786-0 renal
[42] = test system: OVCAR-4 ovarian
[43] = test system: LOX IMVI melanoma
[44] = test system: SNB-19 CNS
[45] = test system: EKVX NSCLC
[46] = test system: HT29 colon
[47] = test system: SW-620 colon
[48] = test system: ACHN renal
[49] = test system: SNB-75 CNS
[50] = test system: IGROV1 ovarian
[51] = test system: UO-31 renal
[52] = test system: BT-549 breast
[53] = test system: SF-268 CNS
[54] = test system: TK-10 renal
[55] = test system: SR leukemia
[56] = test system: MCF7 breast

O=C(NS(=O)(=O)c1ccc(NC[C@H]2COCCO2)c([N+](=O)[O-])c1)c1ccc(N2CCN(CC3=C(c4ccc(Cl)cc4)CC4(CCC4)CC3)CC2)cc1Oc1cnc2[nH]ccc2c1
GI50 [1]: 1.6 µM
TGI [1]: 4.83 µM
GI50 [2]: 1.77 µM
TGI [2]: 3.4 µM
GI50 [3]: 1.78 µM
TGI [3]: 3.23 µM
GI50 [4]: 1.85 µM
TGI [4]: 3.4 µM
GI50 [5]: 2.11 µM
TGI [5]: 4.99 µM
GI50 [6]: 2.18 µM
TGI [6]: 5.06 µM
GI50 [7]: 2.43 µM
TGI [7]: 13.5 µM
GI50 [8]: 1.73 µM
TGI [8]: 4.03 µM
GI50 [9]: 1.95 µM
TGI [9]: 4.57 µM
GI50 [10]: 1.8 µM
TGI [10]: 5.11 µM
GI50 [11]: 2.19 µM
TGI [11]: 5.38 µM
GI50 [12]: 2.77 µM
TGI [12]: 8.6 µM
GI50 [13]: 1.93 µM
TGI [13]: 4.62 µM
GI50 [14]: 1.69 µM
TGI [14]: 3.2 µM
GI50 [15]: 2.24 µM
TGI [15]: 8.99 µM
GI50 [16]: 2.15 µM
TGI [16]: 6.12 µM
GI50 [17]: 1.6 µM
TGI [17]: 2.97 µM
GI50 [18]: 2.12 µM
TGI [18]: 5.76 µM
GI50 [19]: 1.43 µM
TGI [19]: 3.05 µM
GI50 [20]: 3.04 µM
TGI [20]: > 100 µM
GI50 [21]: 1.62 µM
TGI [21]: 3.21 µM
GI50 [22]: 1.66 µM
TGI [22]: 4.08 µM
GI50 [23]: 2.69 µM
TGI [23]: 12.5 µM
GI50 [24]: 1.91 µM
TGI [24]: 3.72 µM
GI50 [25]: 1.36 µM
TGI [25]: 5.22 µM
GI50 [26]: 3.08 µM
TGI [26]: 14.2 µM
GI50 [27]: 1.82 µM
TGI [27]: 3.7 µM
GI50 [28]: 2.21 µM
TGI [28]: 5.11 µM
GI50 [29]: 1.94 µM
TGI [29]: 4.62 µM
GI50 [30]: 1.32 µM
TGI [30]: 2.76 µM
GI50 [31]: 1.88 µM
TGI [31]: 3.93 µM
GI50 [32]: 2.69 µM
TGI [32]: > 100 µM
GI50 [33]: 1.51 µM
TGI [33]: 3 µM
GI50 [34]: 2.36 µM
TGI [34]: 5.74 µM
GI50 [35]: 3.57 µM
TGI [35]: 70.6 µM
GI50 [36]: 2.07 µM
TGI [36]: 4.57 µM
GI50 [37]: 4.88 µM
TGI [37]: 24.9 µM
GI50 [38]: 1.58 µM
TGI [38]: 3.39 µM
GI50 [39]: 1.88 µM
TGI [39]: 4.03 µM
GI50 [40]: 1.79 µM
TGI [40]: 3.71 µM
GI50 [41]: 2.47 µM
TGI [41]: 5.69 µM
GI50 [42]: 2.47 µM
TGI [42]: 9.81 µM
GI50 [43]: 1.85 µM
TGI [43]: 3.63 µM
GI50 [44]: 2.39 µM
TGI [44]: 7.28 µM
GI50 [45]: 2.87 µM
TGI [45]: 9.12 µM
GI50 [46]: 2.58 µM
TGI [46]: 8.14 µM
GI50 [47]: 2.47 µM
TGI [47]: 6.6 µM
GI50 [48]: 2.23 µM
TGI [48]: 5.8 µM
GI50 [49]: 1.76 µM
TGI [49]: 6.31 µM
GI50 [50]: 1.93 µM
TGI [50]: 3.91 µM
GI50 [51]: 1.69 µM
TGI [51]: 3.52 µM
GI50 [52]: 2.42 µM
TGI [52]: 5.39 µM
GI50 [53]: 2.97 µM
TGI [53]: 17.9 µM
GI50 [54]: 2.29 µM
TGI [54]: 7.27 µM
GI50 [55]: 1.82 µM
TGI [55]: 5.31 µM
GI50 [56]: 2.29 µM
TGI [56]: 10.4 µM

From PubChem BioAssay (NCI)
